Source: US8735391B2, “Synthesis of functionalized octahydro-isoquinolin-1-one-8-carboxamides, octahydro-isoquinolin-1-one-8-carboxylic esters and analogs, and therapeutic methods” (University of Kansas, priority 2008, dated 2014)

Tests used:
[1] = biological target: T1, KOR (Homo sapiens, UniProt P41145); assay: Opioid secondary binding, KOR (Tables 4, 5, 8, 9); settings: Opioid secondary binding activity for Formula 10 analogs; read-out: KOR, Ki
[2] = biological target: DOR (Homo sapiens, UniProt P41143); assay: Opioid secondary binding, DOR (Table 4); settings: Opioid secondary binding activity for Formula 10 analogs
[3] = biological target: T1, KOR; assay: [35S]GTPγS binding functional agonist assay on membranes of CHO cells expressing hKOR (reference agonist U69593); format: biochemical; set-up: expressed in transfected cells; host or cells: CHO cells, stably transfected; crude membrane fractions; settings: test compound at 10 micromolar; N=4; reference agonist = 100%; CHO-cell line expressing hKOR
Experimental: The compounds prepared herein were tested for bioactivity with opioid receptors. Agonist assays: Data represent the percent efficacy (relative to cognate agonist) of the test compound at 10 micromolar. The response to a saturating concentration of a reference antagonist or to vehicle (usually none or negligible) is set to 0%. […] The response inhibition elicited by a saturating concentration of reference antagonist is set to 100%; the response inhibition (usually none or negligible) elicited by vehicle is set to 0%. The following tables provide data related to the bioactivity for opioid receptors of the compounds described herein.
Table 6 provides data that represent the average percent efficacy (N=4; relative to cognate agonist) of the test compound at 10 micromolar concentration. The response to a saturating concentration of cognate/reference agonist is set to 100%; the response to a saturating concentration of a reference antagonist or to vehicle (usually none or negligible) is set to 0%. All functional assays are performed on stably transfected CHO-cell lines expressing hKOR, hMOR or hDOR.
(§1) Serial dilutions of the test and reference compounds are made in binding buffer at 2× assay concentration (final assay concentrations ranging from 0.1 nM to 10 μM). Crude membrane fractions (1.8 to 3.5 cm2/well) (prepared from 10-cm plates by harvesting PBS-rinsed monolayers, resuspending and lysing in chilled, hypotonic 50 mM Tris-HCl, pH 7.4, centrifuging at 20,000×g, decanting the supernatant and storing at −80 degrees centigrade; typically, one 10-cm plate provides sufficient material for 24 wells) are resuspended in 1.2 ml of assay buffer containing 20 μM GDP, wheat germ agglutinin (WGA)-coated scintillation proximity beads (2.4 mg), and [35S]GTPγS (300 pM final). The suspension is then added (50 μl/well) to 50 μl of the 2× test or reference compounds (each concentration assayed in triplicate) in flexible transparent PET 96-well plates. The reaction plate is sealed and incubated for 90 min at room temperature, then centrifuged for 5 min at 216×g, and finally loaded into a Wallac MicroBeta TriLux counter. Non-specific [35S]GTPγS binding is assessed at the maximum concentration of reference agonist in the presence of 10 μM antagonist. The background signal is measured at 10 μM reference agonist in the presence of 10 μM unlabeled GTPγS. Raw data (dpm) representing total [35S]GTPγS binding (i.e., specific+non-specific binding) are calculated as a percentage of the maximum response by the reference agonist (in this case U69593).
as §1, with “GTPγS.” for “GTPγS. Raw data (dpm) representing total [35S]GTPγS binding (i.e., specific+non-specific binding) are calculated as a percentage of the maximum response by the reference agonist (in this case U69593).”

T1 sequence (P41145 whole entry): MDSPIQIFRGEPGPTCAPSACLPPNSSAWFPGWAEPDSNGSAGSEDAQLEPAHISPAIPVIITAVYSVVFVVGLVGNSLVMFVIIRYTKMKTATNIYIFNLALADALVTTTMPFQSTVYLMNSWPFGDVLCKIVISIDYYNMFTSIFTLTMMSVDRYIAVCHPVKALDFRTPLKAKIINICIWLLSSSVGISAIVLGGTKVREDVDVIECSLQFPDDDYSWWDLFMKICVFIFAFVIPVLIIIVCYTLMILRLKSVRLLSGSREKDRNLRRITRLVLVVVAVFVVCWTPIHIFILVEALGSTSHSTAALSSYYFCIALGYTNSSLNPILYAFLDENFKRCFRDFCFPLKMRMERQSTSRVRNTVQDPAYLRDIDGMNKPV
Chain of DOR (P41143 whole entry): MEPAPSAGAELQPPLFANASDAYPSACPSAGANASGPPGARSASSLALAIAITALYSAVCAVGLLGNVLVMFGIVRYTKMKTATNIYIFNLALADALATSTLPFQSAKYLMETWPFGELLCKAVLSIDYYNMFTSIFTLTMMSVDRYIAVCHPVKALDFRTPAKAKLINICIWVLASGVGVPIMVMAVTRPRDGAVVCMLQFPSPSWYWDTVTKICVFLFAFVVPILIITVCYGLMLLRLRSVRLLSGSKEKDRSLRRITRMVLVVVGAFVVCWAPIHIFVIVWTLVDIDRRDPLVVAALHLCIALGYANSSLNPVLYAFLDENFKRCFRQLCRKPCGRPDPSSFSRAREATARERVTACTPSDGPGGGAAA

Row | Structure (SMILES) | Ki [1] | Ki [2] | KOR agonist (average percent efficacy relative to cognate agonist) [3]
1 | CC(c1ccccc1)N1CCC2C=CCC(C(=O)Nc3ccccc3)C2C1=O (mixture of isomers) [compound 12164] | 4780 nM | 1380 nM | 
2 | O=C([C@@H]1CC=C[C@@H]2CCN(C3CC3)C(=O)[C@@H]21)N1CCOCC1 (racemic) [compound 8909] |  |  | 7.8%
3 | O=C([C@@H]1CC=C[C@@H]2CCN(C3CCCCC3)C(=O)[C@@H]21)N1CCOCC1 (racemic) [compound 8910] | 2950 nM |  | 42.7%
4 | CCCCN1CC[C@H]2C=CC[C@@H](C(=O)N3CCOCC3)[C@H]2C1=O (racemic) [compound 8911] |  |  | 8.3%
5 | O=C([C@@H]1CC=C[C@@H]2CCN(C3CC3)C(=O)[C@@H]21)N1CCN(c2ccccc2)CC1 (racemic) [compound 8913] | 3190 nM |  | 27.5%
6 | CCCCN1CC[C@H]2C=CC[C@@H](C(=O)N3CCN(c4ccccc4)CC3)[C@H]2C1=O (racemic) [compound 8914] |  |  | 9.9%
7 | O=C(NCCc1ccccc1)[C@@H]1CC=C[C@@H]2CCN(C3CC3)C(=O)[C@@H]21 (racemic) [compound 8917] |  |  | 6.6%
8 | CCCCN1CC[C@H]2C=CC[C@@H](C(=O)NCCc3ccccc3)[C@H]2C1=O (racemic) [compound 8918] | 3270 nM |  | 12.6%
9 | CCCCNC(=O)[C@@H]1CC=C[C@@H]2CCN(CCCC)C(=O)[C@@H]21 (racemic) [compound 8919] | 2810 nM |  | 40.3%
10 | O=C(NC1CCCCC1)[C@@H]1CC=C[C@@H]2CCN(Cc3ccccc3)C(=O)[C@@H]21 (racemic) [compound 8920, 2-Benzyl-N-cyclohexyl-1-oxo-1,2,3,4,4a,7,8,8a-octahydroisoquinoline-8-carboxamide] | 298 nM |  | 94.2%
11 | O=C(NC1CCCCC1)[C@@H]1CC=C[C@@H]2CCN(C3CC3)C(=O)[C@@H]21 (racemic) [compound 8921] |  |  | 4.1%
12 | O=C(NC1CCCCC1)[C@@H]1CC=C[C@@H]2CCN(C3CCCCC3)C(=O)[C@@H]21 (racemic) [compound 8922] | 167 nM |  | 8%
13 | CCCCN1CC[C@H]2C=CC[C@@H](C(=O)NC3CCCCC3)[C@H]2C1=O (racemic) [compound 8923] | 1030 nM |  | 67.6%
14 | COc1ccc(CNC(=O)[C@@H]2CC=C[C@@H]3CCN(Cc4ccccc4)C(=O)[C@@H]32)cc1 (racemic) [compound 8924] | 3730 nM |  | 18.8%
15 | COc1ccc(CNC(=O)[C@@H]2CC=C[C@@H]3CCN(C4CC4)C(=O)[C@@H]32)cc1 (racemic) [compound 8925] |  |  | 5.4%
16 | COc1ccc(CNC(=O)[C@@H]2CC=C[C@@H]3CCN(C4CCCCC4)C(=O)[C@@H]32)cc1 (racemic) [compound 8926] | 2690 nM |  | 29%
17 | CCCCN1CC[C@H]2C=CC[C@@H](C(=O)NCc3ccc(OC)cc3)[C@H]2C1=O (racemic) [compound 8927] |  |  | 8.7%
18 | COc1ccc(CNC(=O)[C@@H]2CC=C[C@@H]3CCN(Cc4ccc(OC)c(OC)c4)C(=O)[C@@H]32)cc1 (racemic) [compound 8929] |  |  | 3.6%
19 | O=C(NCc1cccnc1)[C@@H]1CC=C[C@@H]2CCN(C3CC3)C(=O)[C@@H]21 (racemic) [compound 8930] |  |  | 4%

Row | Structure (SMILES) | Ki [1] | Ki [2] | KOR agonist (average percent efficacy relative to cognate agonist) [3]
20 | O=C(NCc1cccnc1)[C@@H]1CC=C[C@@H]2CCN(C3CCCCC3)C(=O)[C@@H]21 (racemic) [compound 8931] | 552 nM |  | 67.7%
21 | O=C(NCc1cccnc1)[C@@H]1CC=C[C@@H]2CCN(Cc3ccc(Cl)c(Cl)c3)C(=O)[C@@H]21 (racemic) [compound 8932] | 693 nM |  | 74.6%
22 | O=C(Nc1ccccc1)[C@@H]1CC=C[C@@H]2CCN(C3CC3)C(=O)[C@@H]21 (racemic) [compound 8938] | 1400 nM |  | 21.8%
23 | COc1ccc(NC(=O)[C@@H]2CC=C[C@@H]3CCN(Cc4ccccc4)C(=O)[C@@H]32)cc1 (racemic) [compound 8943] | 883 nM |  | 72.9%
24 | COc1ccc(NC(=O)[C@@H]2CC=C[C@@H]3CCN(C4CC4)C(=O)[C@@H]32)cc1 (racemic) [compound 8944] |  |  | 1%
25 | O=C(Nc1ccc(Cl)cc1Cl)[C@@H]1CC=C[C@@H]2CCN(C3CC3)C(=O)[C@@H]21 (racemic) [compound 8948] |  |  | 29.6%
26 | O=C(Nc1ccc(Cl)c(C(F)(F)F)c1)[C@@H]1CC=C[C@@H]2CCN(Cc3ccc(Cl)c(Cl)c3)C(=O)[C@@H]21 (racemic) [compound 8957] |  |  | 33.1%
27 | Cc1ccc(NC(=O)[C@@H]2CC=C[C@@H]3CCN(Cc4ccccc4)C(=O)[C@@H]32)cc1Cl (racemic) [compound 11931] | 2570 nM | 61 nM | 
28 | O=C(Nc1ccc([N+](=O)[O-])c(C(F)(F)F)c1)[C@@H]1CC=C[C@@H]2CCN(Cc3ccccc3)C(=O)[C@@H]21 (racemic) [compound 11932] | 200 nM | 41 nM | 
29 | O=C(Nc1ccc(I)cc1)[C@@H]1CC=C[C@@H]2CCN(Cc3ccccc3)C(=O)[C@@H]21 (racemic) [compound 11954] | 2820 nM | 194 nM | 
30 | O=C(NCc1cccc(Br)c1)[C@@H]1CC=C[C@@H]2CCN(Cc3ccccc3)C(=O)[C@@H]21 (racemic) [compound 11955] | 3280 nM | 438 nM | 
31 | O=C(Nc1ccc(Cl)cc1)[C@@H]1CC=C[C@@H]2CCN(Cc3ccccc3)C(=O)[C@@H]21 (racemic) [compound 12102] | 5030 nM | 165 nM | 
32 | O=C(NCc1ccc(Cl)c(Cl)c1)[C@@H]1CC=C[C@@H]2CCN(Cc3ccccc3)C(=O)[C@@H]21 (racemic) [compound 12148] | 2780 nM | 644 nM | 
33 | O=C(Nc1ccc(Cl)c(C(F)(F)F)c1)[C@@H]1CC=C[C@@H]2CCN(Cc3cccc(Br)c3)C(=O)[C@@H]21 (racemic) [compound 12170] | 1460 nM | 1720 nM | 
34 | O=C(Nc1ccc(Br)c(C(F)(F)F)c1)[C@@H]1CC=C[C@@H]2CCN(Cc3cccc(Br)c3)C(=O)[C@@H]21 (racemic) [compound 12171] | 694 nM | 503 nM | 
35 | Cc1ccc(NC(=O)[C@@H]2CC=C[C@@H]3CCN(Cc4ccccc4)C(=O)[C@@H]32)cc1C(F)(F)F (racemic) [compound 13475] | 1160 nM | 39 nM | 
36 | O=C(Nc1ccc(Br)c(C(F)(F)F)c1)[C@@H]1CC=C[C@@H]2CCN(Cc3ccccc3F)C(=O)[C@@H]21 (racemic) [compound 13478] | 299 nM | 22 nM | 
37 | COc1ccccc1CN1CC[C@H]2C=CC[C@@H](C(=O)Nc3ccc(C)c(C(F)(F)F)c3)[C@H]2C1=O (racemic) [compound 13481] | 1900 nM | 1340 nM | 
